Consider 37 compounds from US10968193B2, “Antidiabetic bicyclic compounds” (Merck Sharp & Dohme Corp., priority 2014, dated 2021).

Assay [1] addresses T1, human GPR40 (Homo sapiens, UniProt O14842).
T1 construct: expressed in transfected cells; host or cells: HEK cells stably expressing the aequorin reporter
Put plainly: Inositol Phosphate Turnover (IP1) Assay 1. Type of assay: cell-based. The conditions noted are these: HEK cells stably expressing human GPR40; 15,000 cells per well; compound transferred via pocket tip; CisBio IP-One kit. On the procedure: Human and mouse GPR40 stable cell-lines were generated in CHO cells stably expressing NFAT BLA (Beta-lactamase). A human GPR40 stable cell-line was generated in HEK cells stably expressing the aequorin expressing reporter. The expression plasmids were transfected using lipofectamine (Life Technologies) following manufacturer's instructions. Stable cell-lines were generated following drug selection.
Inositol Phosphate Turnover (IP1) Assay 1:
The assay was performed in 384-well format. HEK cells stably expressing human GPR40 were plated at 15,000 cells per well in growth medium (DMEM/10% fetal calf serum). Cell plates were then incubated 16 hours at 37 degrees in a 5% CO2 incubator.
Measurement of Inositol Phosphate Turnover (IP1) was performed using the CisBio IP-One kit (Part number 62IPAPEB). After the 16 hour incubation, the cells were washed with HEPES buffer and 10 ul of stimulation buffer (prepared as described in the kit) is added to each well. In a separate plate, compounds were diluted in DMSO (400-fold over the final concentration in the assay well) and 25 nl was transferred via pocket tip to the appropriate well in the assay cell plate. The plates were then incubated for 60 minutes at 37 degrees. 10 ul of detection buffer (also prepared as described in the IP-One kit) was added to each well and the plates were incubated for 60 minutes in the dark. The plates were then read in a Perkin Elmer EnVision or equivalent reader able to measure FRET. Fluorescent ratio of emission at 665 and 620 nm was then converted to IP1 concentration by back calculating from an IP1 standard curve prepared at the time of the assay.

Assay [2] deals with T1, human GPR40. Put plainly: Inositol Phosphate Turnover (IP1) Assay 2. Type of assay: cell-based. Conditions: HEK cells stably expressing human GPR40; 15,000 cells per well; compound acoustically transferred; CisBio IP-One kit. The method in brief: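 HEK cells stably expressing human GPR40, plated 16 h beforehand, were exposed to compound in stimulation buffer for 60 min at 37 °C. IP1 accumulation was detected by HTRF (665/620 nm ratio) after 60 min with detection reagents and converted to IP1 concentration from a same-day standard curve.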

T1 sequence (O14842 whole entry): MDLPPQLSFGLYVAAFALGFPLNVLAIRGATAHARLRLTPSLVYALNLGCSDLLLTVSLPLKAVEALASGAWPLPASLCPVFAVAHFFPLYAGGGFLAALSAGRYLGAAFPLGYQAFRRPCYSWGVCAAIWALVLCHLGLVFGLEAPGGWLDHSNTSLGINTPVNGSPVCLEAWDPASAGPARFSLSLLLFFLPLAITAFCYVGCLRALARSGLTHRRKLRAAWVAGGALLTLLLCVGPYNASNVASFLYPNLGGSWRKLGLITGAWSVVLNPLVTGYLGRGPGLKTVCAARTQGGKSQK

Usually EC50 stands for the midpoint of the concentration-response curve. Lower therefore signals higher potency in that assay. For the compound `COc1ccc(F)c(-c2ccc(C3CCc4ccc([C@H](C5CC5)[C@H](C)C(=O)O)cc4O3)cc2CN)c1` (mixture of isomers) [Example 2], the EC50 on human GPR40 [1] was determined as 2990 nM.
`COc1cc(-c2ccc(C3CCc4ccc([C@H](C5CC5)[C@H](C)C(=O)O)cc4O3)cc2CN2CCC2)c(F)cn1` (mixture of isomers) [Example 10]: a half-maximal effect on human GPR40 [1] (EC50) was put at 193 nM.
Regarding `COc1cc(-c2ccc(C3CCc4ccc([C@H](C5CC5)[C@H](C)C(=O)O)cc4O3)cc2C(C)N(C)C)c(F)cn1` (stereo partly shown) [Example 3], the midpoint of the response on human GPR40 [1], the EC50, lay at 18 nM.
Compound `COC[C@@H]1CC[C@@H](COC)N1Cc1cc(C2CCc3ccc([C@H](C4CC4)[C@H](C)C(=O)O)cc3O2)ccc1-c1cc(OC)ncc1F` (stereo partly shown) [Example 58] had a concentration giving a half-maximal response (EC50) at human GPR40 [2] of 1.1 nM.
With `COc1cc(-c2ccc(C3CCc4ccc([C@H](C5CC5)[C@H](C)C(=O)O)cc4O3)c(CN3CCCC3)c2)ccn1` (mixture of isomers) [Example 112], a half-maximal effect at human GPR40 [2] (EC50) was put at 5.6 nM.
`COc1cc(-c2ccc(C3CCc4ccc([C@H](C5CC5)[C@H](C)C(=O)O)cc4O3)cc2C(C)N2CCCC2)c(F)cn1` (stereo partly drawn) [Example 84, Methyl (2S,3R)-3-cyclopropyl-3-(2-(4-(5-fluoro-2-methoxypyridin-4-yl)-3-(1-(pyrrolidin-1-yl)ethyl)phenyl)chroman-7-yl)-2-methylpropanoic acid]: a half-maximal response on human GPR40 [2] (EC50) required 2 nM.
Regarding `COc1cc(-c2ccc(C3CCc4ccc([C@H](C5CC5)[C@H](C)C(=O)O)cc4O3)cc2CN2CC[C@H](F)C2)c(F)cn1` (single isomer, unassigned) [Example 25], the half-maximal effective concentration (EC50) on human GPR40 [2] came to 2.3 nM.
On the same count and under the same terms, in the case of `COc1cc(-c2ccc(C3CCc4ccc([C@H](C5CC5)[C@H](C)C(=O)O)cc4O3)nc2CN2CCOCC2)c(F)cn1` (mixture of isomers) [Example 12] it was 60 nM; in that of `COc1cc(-c2ccc(C3CCc4ccc([C@H](C5CC5)[C@H](C)C(=O)O)cc4O3)cc2CN2CC[C@@H](S(C)(=O)=O)C2)c(F)cn1` (stereo partly shown) [Example 5], 660 nM; in that of `COc1cc(-c2ccc(C3CCc4ccc([C@H](C5CC5)[C@H](C)C(=O)O)cc4O3)cc2CN2CC[C@H](F)C2)c(F)cn1` (single isomer, unassigned) [Example 26], 2.5 nM.
With `COc1cc(-c2ccc([C@@H]3CCc4ccc([C@H](C5CC5)[C@H](C)C(=O)O)cc4O3)cc2CN2CCCC[C@@H]2C)c(F)cn1` [Example 154], it took 1.3 nM to reach a half-maximal effect on human GPR40 [2] (EC50).
`COc1cc(-c2ccc(C3CCc4ccc([C@H](C5CC5)[C@H](C)C(=O)O)cc4O3)cc2CN2CC[C@@H](C(F)(F)F)C2)c(F)cn1` (single isomer, unassigned) [Example 28] registered an EC50 on human GPR40 [2] of 1.4 nM.
At human GPR40 [2], `COc1c[nH]nc1-c1ccc([C@@H]2CCc3ccc([C@H](C4CC4)[C@H](C)C(=O)O)cc3O2)cc1CN1CCCC1` [Example 79, Sodium (2S,3R)-3-cyclopropyl-3-((S)-2-(4-(4-methoxy-1H-pyrazol-3-yl)-3-(pyrrolidin-1-ylmethyl)phenyl)chroman-7-yl)-2-methylpropanoate] registered an EC50 of 4840 nM.
In turn, `COc1cc(-c2ccc([C@@H]3CCc4ccc([C@H](C5CC5)[C@H](C)C(=O)O)cc4O3)cc2CN2CCCCC2(C)C)c(F)cn1` [Example 152] had a half-maximal effective concentration (EC50) at human GPR40 [2] of 0.5 nM.
For `CCOc1cc(-c2ccc(C3CCc4ccc([C@H](C5CC5)[C@H](C)C(=O)O)cc4O3)cc2CN2CCCC2)c(Cl)cn1` (mixture of isomers) [Example 216], a half-maximal response on human GPR40 [2] (EC50) required 86 nM.
On human GPR40 [2], `COc1cc(-c2ncc([C@H]3CCc4ccc([C@H](C5CC5)[C@H](C)C(=O)O)cc4O3)nc2CN2CCCC2)c(F)cn1` (single isomer, unassigned) [Example 110b] gave a 50% effective concentration (EC50) of 139 nM.
Same read-out and setting: in the case of `COc1cc(-c2ccc(C3CCc4ccc([C@H](C5CC5)[C@H](C)C(=O)O)cc4O3)cc2CN2CC(F)(F)C2)c(F)cn1` (mixture of isomers) [Example 61] it was 2 nM; in that of `COc1cc(-c2ccc([C@@H]3CCc4ccc([C@H](C5CC5)[C@H](C)C(=O)O)cc4O3)cc2CN2CCC[C@H]2C)c(F)cn1` [Example 141], 1.1 nM; in that of `COc1cc(-c2ccc(C3CCc4ccc([C@H](C5CC5)[C@H](C)C(=O)O)cc4O3)cc2CN2CCC(F)(F)C2)c(F)cn1` (single isomer, unassigned) [Example 32], 0.84 nM.
At human GPR40 [2], `COc1cc(-c2ccc([C@H]3CCc4ccc([C@H](C5CC5)[C@H](C)C(=O)O)cc4O3)cc2CN2CCC2(C)C)c(F)cn1` [Example 156] showed a half-maximal effective concentration (EC50) of 8.3 nM.
In turn, `COc1cc(-c2ccc(C3CCc4ccc([C@H](C5CC5)[C@H](C)C(=O)O)cc4O3)cc2CN2CC[C@H](F)C2)c(F)cn1` (stereo partly shown) [Example 15] came in with an EC50 at human GPR40 [2] of 1.1 nM.
For the compound `COc1cc(-c2ccc(C3CCc4ccc([C@H](C5CC5)[C@H](C)C(=O)O)cc4O3)cc2CN(C)CC(F)(F)F)c(F)cn1` (stereo partly shown) [Example 20], at human GPR40 [2], the EC50 turned out to be 0.84 nM.
The same measure, in the same setting: in the case of `CCN(CC)Cc1cc([C@H]2CCc3ccc([C@H](C4CC4)[C@H](C)C(=O)O)cc3O2)ccc1-c1cc(OC)ncc1F` [Example 145] it was 2.7 nM; in that of `COc1cc(-c2ccc([C@H]3CCc4ccc([C@H](C5CC5)[C@H](C)C(=O)O)cc4O3)cc2CN2CCC[C@H]2C)c(F)cn1` [Example 137], 4.6 nM.
With `COc1cc(-c2ccc(C3CCc4ccc([C@H](C5CC5)[C@H](C)C(=O)O)cc4O3)cc2CN2CCOCC2)c(F)cn1` (single isomer, unassigned) [Example 11a], a half-maximal effect at human GPR40 [2] (EC50) was put at 1.7 nM.
The same measure, in the same setting: in the case of `COc1cc(-c2ccc([C@H]3CCc4ccc([C@H](C5CC5)[C@H](C)C(=O)O)cc4O3)cc2CN2CCCCC2(C)C)c(F)cn1` [Example 166] it was 0.3 nM; in that of `COc1cc(-c2ccc(C3CCc4ccc([C@H](C5CCC5)[C@H](C)C(=O)O)cc4O3)cc2CN2CCCC2)c(F)cn1` (single isomer, unassigned) [Example 92], 4 nM.
Take `COc1cc(-c2ccc(C3CCc4ccc([C@H](C5CC5)[C@H](C)C(=O)O)cc4O3)cc2CN(C)C)c(F)cn1` (stereo partly drawn) [Example 1, (2S,3R)-3-cyclopropyl-3-(2-(3-((dimethylamino)methyl)-4-(5-fluoro-2-methoxypyridin-4-yl)phenyl)chroman-7-yl)-2-methylpropanoic acid]: the half-maximal effective concentration (EC50) at human GPR40 [1] turned out to be 8.6 nM.
`COc1cc(-c2ccc(C3CCc4ccc([C@H](C5CC5)[C@H](C)C(=O)O)cc4O3)cc2CN2CCC3OCCC32)c(F)cn1` (stereo partly shown) [Example 39] had a concentration giving a half-maximal response (EC50) at human GPR40 [2] of 2.1 nM.
`COc1cc(-c2ccc([C@H]3CCc4ccc([C@H](C5CC5)[C@H](C)C(=O)O)cc4O3)cc2CN2CCCCC23CC3)c(F)cn1` [Example 144] yielded a concentration giving a half-maximal response (EC50) on human GPR40 [2] of 0.3 nM.
At human GPR40 [2], `CCN(CC)Cc1cc([C@@H]2CCc3ccc([C@H](C4CC4)[C@H](C)C(=O)O)cc3O2)ccc1-c1cc(OC)ncc1F` [Example 159] showed an EC50 of 3.3 nM.
`COc1cc(-c2ccc([C@@H]3CCc4ccc([C@H](C5CC5)[C@H](C)C(=O)O)cc4O3)cc2CN2CCCC(C)(C)C2)c(F)cn1` [Example 143] came in with an EC50 on human GPR40 [2] of 0.3 nM.
`COc1cc(-c2cc(F)c(C3CCc4ccc([C@H](C5CC5)[C@H](C)C(=O)O)cc4O3)cc2CN2CCCC2)ccn1` (stereo partly drawn) [Example 180, 1RS, (2S, 3R)-3-cyclopropyl-3-(2-(2-fluoro-4-(2-methoxypyridin-4-yl)-5-(pyrrolidin-1-ylmethyl)phenyl)chroman-7-yl)-2-methylpropanoic acid] had an EC50 on human GPR40 [2] of 41 nM.
Consider `COc1cc(-c2ccc(C3CCc4ccc([C@H](C5CC5)[C@H](C)C(=O)O)cc4O3)cc2CN2CC(C)C2)c(F)cn1` (mixture of isomers) [Example 35], for which a half-maximal effect on human GPR40 [2] (EC50) was put at 22 nM.
Consider `COc1cc(-c2ccc([C@H]3CCc4ccc([C@H](C5CC5)[C@H](C)C(=O)O)cc4O3)cc2CN2CCC[C@@H]2C)c(F)cn1` [Example 136], for which, on human GPR40 [2], it took 4.6 nM to reach a half-maximal effect (EC50).
Take `COc1cc(-c2ccc(C3CCc4ccc([C@H](C5CC5)[C@H](C)C(=O)O)cc4O3)cc2[C@@H](C)N(C)C)c(F)cn1` (stereo partly drawn) [Example 83, (2S,3R)-3-cyclopropyl-3-((R)-2-(3-((R)-1-(dimethylamino)ethyl)-4-(5-fluoro-2-methoxypyridin-4-yl)phenyl)chroman-7-yl)-2-methylpropanoic aid]: at human GPR40 [2], the half-maximal effective concentration (EC50) is 3 nM.
On human GPR40 [2], `COc1cc(-c2ccc(C3CCc4ccc([C@H](C5CC5)[C@H](C)C(=O)O)cc4O3)cc2CN2CCC(OC)CC2)c(F)cn1` (mixture of isomers) [Example 45] gave an EC50 of 12 nM.
